Assay results as given in ChEMBL document CHEMBL6109078, “Pyrylium derivatives as outer membrane permeabilizers against MDR gram-negative bacteria via multi-target mode of action” (Eur J Med Chem, 2025).
The source made the active and inactive calls. The calls are words filed in the database; no cut-off is given here.

Columns and labels:
Escherichia coli [1] = test: Antibacterial activity against ESBL positive Escherichia coli ATCC 35218 assessed as inhibition of bacterial growth by CLSI protocol based method; type: functional
Acinetobacter baumannii [2] = test: Synergistic antibacterial activity against multi-drug resistant Acinetobacter baumannii clinical isolate 43 assessed as fractional inhibitory concentration index in presence of polymyxin B by checkerboard assay; type: functional
Acinetobacter baumannii [3] = test: Synergistic antibacterial activity against multi-drug resistant Acinetobacter baumannii clinical isolate 5 assessed as fractional inhibitory concentration index in presence of polymyxin B by checkerboard assay; type: functional
Escherichia coli [4] = test: Synergistic antibacterial activity against Escherichia coli CG-4 expressing MCR-1 and NDM-1 assessed as fractional inhibitory concentration index in presence of gentamycin by checkerboard assay; type: functional
Escherichia coli [5] = test: Synergistic antibacterial activity against multi-drug resistant Escherichia coli clinical isolate 1 assessed as fractional inhibitory concentration index in presence of amikacin by checkerboard assay; type: functional
Acinetobacter baumannii [6] = test: Antibacterial activity against multi-drug resistant Acinetobacter baumannii clinical isolate 43 assessed as inhibition of bacterial growth by CLSI protocol based method; type: functional
Escherichia coli [7] = test: Synergistic antibacterial activity against Escherichia coli CG-4 expressing MCR-1 and NDM-1 assessed as inhibition of bacterial growth by measuring polymyxin B MIC by checkerboard assay; type: functional
Escherichia coli [8] = test: Synergistic antibacterial activity against Escherichia coli ATCC 35218 assessed as fractional inhibitory concentration index in presence of amikacin by checkerboard assay; type: functional
Escherichia coli [9] = test: Synergistic antibacterial activity against multi-drug resistant Escherichia coli clinical isolate 1 assessed as inhibition of bacterial growth by measuring polymyxin B MIC by checkerboard assay; type: functional
Escherichia coli [10] = test: Antibacterial activity against Escherichia coli ATCC 25922 assessed as bacterial killing at 100 microg/ml measured within 4 to 12 hrs by time-kill kinetics analysis; type: functional; settings: dose 100 µg/ml; time 4-12 hrs
Escherichia coli [11] = test: Antibacterial activity against Escherichia coli ATCC 25922 assessed as inhibition of bacterial growth by measuring fold change in MIC incubated for 16 to 18 hrs in presence of LPS; type: functional; settings: time 16-18 hrs
Escherichia coli [12] = test: Synergistic antibacterial activity against Escherichia coli ATCC 35218 assessed as inhibition of bacterial growth in presence of polymyxin B by checkerboard assay; type: functional
Cell membrane [13] = test: Disruption of outer membrane integrity in Escherichia coli ATCC 25922 assessed as increase in EtBr uptake by fluorescence plate reader analysis
Cell membrane [14] = test: Induction of outer membrane damage in Escherichia coli ATCC 25922 assessed as accumulation of membrane-like structures near inner membrane at 12.5 microg/ml incubated for 1 hrs by TEM analysis; settings: dose 12.5 µg/ml
Acinetobacter baumannii [15] = test: Synergistic antibacterial activity against Acinetobacter baumannii ATCC 19606 assessed as fractional inhibitory concentration index in presence of amikacin by checkerboard assay; type: functional
Acinetobacter baumannii [16] = test: Synergistic antibacterial activity against Acinetobacter baumannii ATCC 19606 assessed as inhibition of bacterial growth by measuring polymyxin B MIC by checkerboard assay; type: functional
Escherichia coli [17] = test: Synergistic antibacterial activity against multi-drug resistant Escherichia coli clinical isolate 1 assessed as fractional inhibitory concentration index in presence of polymyxin B by checkerboard assay; type: functional
Cell membrane [18] = test: Induction of outer membrane damage in Escherichia coli ATCC 25922 assessed as local fractures at 12.5 microg/ml incubated for 1 hrs by TEM analysis; settings: dose 12.5 µg/ml
Pseudomonas aeruginosa [19] = test: Antibacterial activity Pseudomonas aeruginosa ATCC 27853 assessed as inhibition of bacterial growth by CLSI protocol based method; type: functional
Acinetobacter baumannii [20] = test: Synergistic antibacterial activity against Acinetobacter baumannii ATCC 19606 assessed as inhibition of bacterial growth in presence of polymyxin B by checkerboard assay; type: functional
Acinetobacter baumannii [21] = test: Synergistic antibacterial activity against multi-drug resistant Acinetobacter baumannii clinical isolate 5 assessed as inhibition of bacterial growth in presence of polymyxin B by checkerboard assay; type: functional
Acinetobacter baumannii [22] = test: Antibacterial activity against Acinetobacter baumannii ATCC 19606 assessed as bacterial killing at 100 microg/ml measured within 4 to 12 hrs by time-kill kinetics analysis; type: functional; settings: dose 100 µg/ml; time 4-12 hrs
Cell membrane [23] = test: Induction of outer membrane damage in Escherichia coli ATCC 25922 assessed as loose outer membrane with decrease in electron cloud density at 12.5 microg/ml incubated for 1 hrs by TEM analysis; settings: dose 12.5 µg/ml
Acinetobacter baumannii [24] = test: Synergistic antibacterial activity against multi-drug resistant Acinetobacter baumannii clinical isolate 43 assessed as fractional inhibitory concentration index in presence of gentamycin by checkerboard assay; type: functional
Acinetobacter baumannii [25] = test: Synergistic antibacterial activity against multi-drug resistant Acinetobacter baumannii clinical isolate 14 assessed as fractional inhibitory concentration index in presence of polymyxin B by checkerboard assay; type: functional
Klebsiella pneumoniae [26] = test: Antibacterial activity against Klebsiella pneumoniae BAA ATCC 1706 assessed as inhibition of bacterial growth by CLSI protocol based method; type: functional
Escherichia coli [27] = test: Antibacterial activity against Escherichia coli ATCC 25922 assessed as inhibition of bacterial growth by measuring decrease in bacterial count at 6.25 to 50 microg/ml measured after 12 hrs by time-kill kinetics analysis; type: functional; settings: dose 6.25-50 µg/ml
Pseudomonas aeruginosa [28] = test: Synergistic antibacterial activity against Pseudomonas aeruginosa assessed as inhibition of bacterial growth in presence of polymyxin B by checkerboard assay; type: functional, organism-based
Escherichia coli [29] = test: Synergistic antibacterial activity against Escherichia coli CG-4 expressing MCR-1 and NDM-1 assessed as fractional inhibitory concentration index in presence of polymyxin B by checkerboard assay; type: functional
Acinetobacter baumannii [30] = test: Antibacterial activity against multi-drug resistant Acinetobacter baumannii clinical isolate 10 assessed as inhibition of bacterial growth by CLSI protocol based method; type: functional
Acinetobacter baumannii [31] = test: Antibacterial activity against multi-drug resistant Acinetobacter baumannii clinical isolate 4 assessed as inhibition of bacterial growth by CLSI protocol based method; type: functional
Escherichia coli [32] = test: Antibacterial activity against Escherichia coli ATCC 25922 assessed as inhibition of bacterial growth by measuring fold increase in MIC incubated for 16 to 18 hrs in presence of Mg2+; type: functional; settings: time 16-18 hrs
Acinetobacter baumannii [33] = test: Synergistic antibacterial activity against multi-drug resistant Acinetobacter baumannii clinical isolate 1 assessed as fractional inhibitory concentration index in presence of polymyxin B by checkerboard assay; type: functional
Cell membrane [34] = test: Induction of outer membrane damage in Escherichia coli ATCC 25922 assessed as local damage at 12.5 microg/ml incubated for 1 hrs by TEM analysis; settings: dose 12.5 µg/ml
Escherichia coli [35] = test: Antibacterial activity against Escherichia coli ATCC 25922 infected in Galleria mellonella larvae assessed as survival rate at 50 microg/ml measured 96 hrs post-inoculation relative to control; type: functional
Klebsiella pneumoniae [36] = test: Synergistic antibacterial activity against Klebsiella pneumoniae assessed as inhibition of bacterial growth in presence of aminoglycoside by checkerboard assay; type: functional, organism-based
Acinetobacter baumannii [37] = test: Antibacterial activity against multi-drug resistant Acinetobacter baumannii clinical isolate 5 assessed as inhibition of bacterial growth by CLSI protocol based method; type: functional
[38] = Binding affinity to His-tagged LptA (unknown origin) extracted from Escherichia coli BL21 (DE3) cells assessed as dissociation constant by BLI analysis; parameters: species or system Bacteria
Escherichia coli [39] = test: Induction of morphological changes in Escherichia coli ATCC 25922 assessed as appearance of filamentous bacterial cells at 6.25 microg/ml incubated for 1 hrs by optical microscopic analysis; type: functional, organism-based; settings: dose 6.25 µg/ml

Compound	MIC (Escherichia coli [1]) [µg/mL]	fractional inhibitory concentration index (FICI) (Acinetobacter baumannii [2])	fractional inhibitory concentration index (FICI) (Acinetobacter baumannii [3])	fractional inhibitory concentration index (FICI) (Escherichia coli [4])	fractional inhibitory concentration index (FICI) (Escherichia coli [5])	MIC (Acinetobacter baumannii [6]) [µg/mL]	MIC (Escherichia coli [7]) [µg/mL]	fractional inhibitory concentration index (FICI) (Escherichia coli [8])	MIC (Escherichia coli [9]) [µg/mL]	MIC (Escherichia coli [12]) [µg/mL]	fractional inhibitory concentration index (FICI) (Acinetobacter baumannii [15])	MIC (Acinetobacter baumannii [16]) [µg/mL]	fractional inhibitory concentration index (FICI) (Escherichia coli [17])	MIC (Pseudomonas aeruginosa [19]) [µg/mL]	MIC (Acinetobacter baumannii [20]) [µg/mL]	MIC (Acinetobacter baumannii [21]) [µg/mL]	fractional inhibitory concentration index (FICI) (Acinetobacter baumannii [24])	MIC (Klebsiella pneumoniae [26]) [µg/mL]	Activity (Escherichia coli [27]) [log10CFU/ml]	Activity (Pseudomonas aeruginosa [28])	other results
CCN(CC)c1ccc(/C=C/c2cc(C(C)(C)C)[o+]c(C(C)(C)C)c2)cc1.O=S(=O)([O-])C(F)(F)F	6.25	0.5	0.188	0.125	0.125	12.5	0.78	0.125	0.2	1.56	0.125	0.006	0.031	> 100	0.78	1.56	0.125	12.5	<6	inactive	Activity (Escherichia coli [10]): 100%; fold change (FC) (Escherichia coli [11]): 2; Activity (Cell membrane [13]): Dose-dependent-effect; Activity (Cell membrane [14]): Active; Activity (Cell membrane [18]): Active; Activity (Acinetobacter baumannii [22]): 100%; Activity (Cell membrane [23]): Active; fractional inhibitory concentration index (FICI) (Acinetobacter baumannii [25]): 0.141; fractional inhibitory concentration index (FICI) (Escherichia coli [29]): 0.375; MIC (Acinetobacter baumannii [30]): 12.5 µg/mL; MIC (Acinetobacter baumannii [31]): 12.5 µg/mL; fold change (FC) (Escherichia coli [32]): 2; fractional inhibitory concentration index (FICI) (Acinetobacter baumannii [33]): <0.064; Activity (Cell membrane [34]): Active; survival at 50 µg/mL (Escherichia coli [35]): 40%; Activity (Klebsiella pneumoniae [36]): inactive; MIC (Acinetobacter baumannii [37]): 12.5 µg/mL; Kd [38]: 0.48 µM; Activity (Escherichia coli [39]): Active
CC(C)(C)c1cc(/C=C/c2ccc(N3CCCC3)cc2)cc(C(C)(C)C)[o+]1.O=S(=O)([O-])C(F)(F)F	6.25	0.5	0.313	0.125	0.125	12.5	0.39	0.125	0.39	3.13	0.125	0.002	0.063	> 100	1.56	1.56	0.125	> 100	<6	inactive	Activity (Escherichia coli [10]): 100%; fold change (FC) (Escherichia coli [11]): 2; Activity (Cell membrane [13]): Dose-dependent-effect; Activity (Cell membrane [14]): Active; Activity (Cell membrane [18]): Active; Activity (Acinetobacter baumannii [22]): 100%; Activity (Cell membrane [23]): Active; fractional inhibitory concentration index (FICI) (Acinetobacter baumannii [25]): 0.313; fractional inhibitory concentration index (FICI) (Escherichia coli [29]): 0.188; MIC (Acinetobacter baumannii [30]): 6.25 µg/mL; MIC (Acinetobacter baumannii [31]): 12.5 µg/mL; fold change (FC) (Escherichia coli [32]): 2; fractional inhibitory concentration index (FICI) (Acinetobacter baumannii [33]): <0.266; Activity (Cell membrane [34]): Active; survival at 50 µg/mL (Escherichia coli [35]): 40%; Activity (Klebsiella pneumoniae [36]): inactive; MIC (Acinetobacter baumannii [37]): 6.25 µg/mL; Kd [38]: 15 µM; Activity (Escherichia coli [39]): Active
CN1CCOc2cc(/C=C/c3cc(C(C)(C)C)[o+]c(C(C)(C)C)c3)ccc21.O=S(=O)([O-])C(F)(F)F	25	<0.25	0.25	0.125	0.125	100	0.031	0.125	0.2	6.25	0.125	0.006	0.047	> 100	6.25	6.25	0.125	> 100	<6	inactive	fractional inhibitory concentration index (FICI) (Escherichia coli [29]): 0.156; MIC (Acinetobacter baumannii [30]): 50 µg/mL; MIC (Acinetobacter baumannii [31]): 100 µg/mL; fractional inhibitory concentration index (FICI) (Acinetobacter baumannii [33]): <0.126; Activity (Klebsiella pneumoniae [36]): inactive; MIC (Acinetobacter baumannii [37]): 50 µg/mL
